Consider 1 compound from ChEMBL document CHEMBL4765313, “Synthesis, in vitro evaluation and molecular docking of a new class of indolylpropyl benzamidopiperazines as dual AChE and SERT ligands for Alzheimer's disease” (Eur J Med Chem, 2020).

Activity calls are given as the source filed them. The rule behind the calls is not given here.

Series [1] concerns HEK293. Briefly: Cytotoxicity against human HEK293 cells assessed as reduction in cell viability incubated for 72 hrs by MTT assay. Conditions: HEK293, 72 h. The class given is ADME, cell-based. On the technique in general: Tetrazolium assays rely on reduction of a dye to a coloured formazan, in cell work by metabolically active cells.
The subject of series [2] is SH-SY5Y. The series is described as follows: Cytotoxicity against human SH-SY5Y cells assessed as reduction in cell viability incubated for 72 hrs by MTT assay. The class given is ADME, cell-based.
Series [3] is described as follows: Solubility of compound at pH 7.4 at 1 to 100 uM. Conditions: buffer, pH 7.4, 100 µM; dose 1-100 µM. The class given is physicochemical.
The target in series [4] is Acetylcholinesterase (Homo sapiens, UniProt P22303). Briefly: Inhibition of human plasma AChE using acetylthiocholine iodide as substrate preincubated for 15 mins followed by substrate addition and measured after 10 mins by Ellman's method. The class given is cell-free.
Series [5] concerns N2a. Briefly: Decrease in APP-C99 in mouse N2a cells transfected with human APP695 by Western blot analysis. The class given is functional, cell-based.
Series [6] in a line: Reduction of beta-Amyloid40 level in mouse N2a cells transfected with human APP695 at 10 uM incubated for 16 hrs by ELISA relative to control. The class given is functional.
The target in series [7] is Sodium-dependent serotonin transporter (Homo sapiens, UniProt P31645). The series is described as follows: Displacement of [3H]paroxetine from human SERT expressed in human HEK293 cells incubated for 30 mins by liquid scintillation counting analysis. The class given is cell-based.
The test system of series [8] is N2a. Briefly: Effect on APP in mouse N2a cells transfected with human APP695 by Western blot analysis. The class given is functional, cell-based. On the technique in general: Immunoblotting shows a protein as a band on a membrane.

Sequence of Acetylcholinesterase (P22303 whole entry): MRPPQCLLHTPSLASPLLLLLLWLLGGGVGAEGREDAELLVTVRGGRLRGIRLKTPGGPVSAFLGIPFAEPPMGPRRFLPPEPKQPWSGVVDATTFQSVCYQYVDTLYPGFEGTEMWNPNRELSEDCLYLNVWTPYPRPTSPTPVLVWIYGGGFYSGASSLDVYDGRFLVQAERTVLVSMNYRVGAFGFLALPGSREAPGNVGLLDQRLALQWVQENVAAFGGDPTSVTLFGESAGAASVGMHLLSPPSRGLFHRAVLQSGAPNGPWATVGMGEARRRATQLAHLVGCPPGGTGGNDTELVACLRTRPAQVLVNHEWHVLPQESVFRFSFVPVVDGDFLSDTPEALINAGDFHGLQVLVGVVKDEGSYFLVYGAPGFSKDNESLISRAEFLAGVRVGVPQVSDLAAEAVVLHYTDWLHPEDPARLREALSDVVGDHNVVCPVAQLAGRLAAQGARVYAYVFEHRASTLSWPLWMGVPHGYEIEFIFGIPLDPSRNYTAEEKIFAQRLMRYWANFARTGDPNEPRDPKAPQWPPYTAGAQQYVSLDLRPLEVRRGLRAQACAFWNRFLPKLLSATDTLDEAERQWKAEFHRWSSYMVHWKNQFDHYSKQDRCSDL
Sequence of Sodium-dependent serotonin transporter (P31645 whole entry): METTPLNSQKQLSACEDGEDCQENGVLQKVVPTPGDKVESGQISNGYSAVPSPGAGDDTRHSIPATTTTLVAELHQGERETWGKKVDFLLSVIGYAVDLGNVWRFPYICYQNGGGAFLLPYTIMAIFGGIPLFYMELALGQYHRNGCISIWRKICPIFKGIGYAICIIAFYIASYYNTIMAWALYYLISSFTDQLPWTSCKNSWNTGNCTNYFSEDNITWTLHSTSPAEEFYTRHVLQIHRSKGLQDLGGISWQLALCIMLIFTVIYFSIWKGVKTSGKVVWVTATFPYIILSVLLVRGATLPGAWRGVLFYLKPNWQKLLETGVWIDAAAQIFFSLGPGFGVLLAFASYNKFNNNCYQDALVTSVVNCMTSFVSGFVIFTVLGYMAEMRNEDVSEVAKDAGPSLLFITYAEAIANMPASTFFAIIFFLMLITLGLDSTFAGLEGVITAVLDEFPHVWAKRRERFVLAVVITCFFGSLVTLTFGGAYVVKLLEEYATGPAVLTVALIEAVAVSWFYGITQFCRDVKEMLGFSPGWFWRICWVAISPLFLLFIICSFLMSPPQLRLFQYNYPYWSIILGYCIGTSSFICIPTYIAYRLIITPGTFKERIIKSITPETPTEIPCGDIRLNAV

The term IC50 denotes the concentration at which inhibition is half-maximal. One may read the inhibition as how much of the control response was suppressed. On to `O=C(CN1CCN(C(=O)c2cccc(Br)c2)CC1)N1CCN(CCCc2c[nH]c3ccccc23)CC1`, for which the IC50 is 80.7 µM in series [1], 80.5 µM in series [2], 23 µM in series [4] and > 1000 µM in series [7]. The solubility entry in series [3] is listed as “Soluble”. Besides, the inhibition result in series [5] was “Active”. In addition, the inhibition at 10 µM in series [6] was determined as 50%. Further, the result in series [8] was inactive.
